The term melting point denotes the temperature of the solid-liquid transition.

The results in this text go back to patent US20030119022A1, “Recognition and cleavage at the DNA major groove” (priority 2001, published 2003).

Series [1] has as its system 5′-^32p end-labeled 514 bps restriction fragment from pBR322 DNA (Ecor I/ Rsa I). The series is described as follows: Reductive cleavage of 32P-end labeled DNA restriction fragment, PAGE autoradiogram. It is filed as biochemical.
Setting [2] is: NaBH4 reductive activation, hydrolytic cleavage.
The mark [3] stands for this setting: NaBH4 reductive activation, piperidine cleavage.

Take `CCOC(=O)c1[nH]c2c(c1COC(C)=O)C(=O)C(OC)=CC2=O`: the melting point lay within 194 to 196 °C.

With `COC1=CC(=O)c2[nH]c(COC(C)=O)c(COC(C)=O)c2C1=O` [Compound 1d, 2,3-Diacetoxymethyl-5-methoxyindol-4,7-dione], the melting point fell in the range of 179 to 181 °C. For the same compound, the “Cleavage Pattern” value in series [1] (setting [2]) was “recognition occurs only at 3′-GGA-5′ with phosphate alkylation and cleavage occurring largely at the center G base”. Further, the “Cleavage Pattern” value in series [1] (setting [3]) was “GT (5′”.

Turning to `COC1=CC(=O)c2[nH]c3c(c2C1=O)CCC3OC(C)=O` (stereo not drawn) [Compound 2b, 3-Acetoxy-7-methoxy-1,2,3,4-tetrahydrocyclopent[b]indole-5,8-dione], the melting point was in the range of 173 to 175 °C. For the same compound, the “Cleavage Pattern” value in series [1] (setting [2]) is listed as “No Significant”. Further, the “Cleavage Pattern” value in series [1] (setting [3]) was “G & T of 3′-GT-”.

Turning to `COS(=O)(=O)OC` [DMS, reference compound], the “Cleavage Pattern” value in series [1] (Piperidine cleavage, no reductive activation (sequencing reference lane)) is given as “G & A”.

With `CC(=O)OCc1[nH]c2c(c1C)C(=O)C(N1CC1)=CC2=O` [reference compound], the “Cleavage Pattern” value in series [1] (setting [2]) was “Weak Cleavage”; in series [1] (setting [3]) it was “Some G & A”.

Regarding `CC(=O)OC1CCc2c1[nH]c1c2C(=O)C=C(N2CC2)C1=O` (stereo not drawn) [reference compound], the “Cleavage Pattern” value is listed as “No Significant Cleavage” in series [1] (setting [2]) and “G & T of 3′-GT- 5′” in series [1] (setting [3]).
